Source: patent US11673916B2, “Neuroprotective peptides and methods of their use” (University of Pittsburgh—Of the Commonwealth System of …, priority 2020, dated 2023)

System: MCAo mouse model of ischemic stroke
Assay: Murine neurological score (MNS) after MCAo
Format: in vivo
Conditions: 50 minutes left MCAo, IP injection at one and six hours post-reperfusion, versus scrambled control (FIG. 6E)
Procedure: To analyze neurological deficits following MCA stroke, testing was performed by a blinded experimenter on additional cohorts, both at baseline (all initial scores were 0) and on post-stroke days 1, 2, 3, 5, 7, 10, 14, 21, 28, 35, and 42. An objective murine neurological score (Table 3) was assigned on each date, ranging from 0 (no neurological deficit) to 8 (stroke-related death) (Yeh et al., J Neurosci. 37: 5648-5658, 2017).
Twenty-four hours following cerebral reperfusion after MCAo, total infarct ratios were analyzed (FIG. 6B) in tetrazolium chloride-stained brain sections (FIGS. 6B and 6C). […] Preparation of peptides, MCAo surgery and injection, as well as infarct analysis were all randomized and performed blindly. A second cohort of mice was subjected to 50-minute MCAo, followed by TAT-DP-2 or TAT-Sc-2 injection at one and six-hours post-reperfusion (FIG. 6A). A different, blinded observer then analyzed each animal and assigned an objective murine neurological score (MNS; Table 3) to each mouse over a 42-day period. As the MNS is based solely on characteristic motor deficits developed following left MCAo, all animals initially scored zero on the scale.

Sequence: YGRKKRRQRRRSIDSFTS [TAT-DP-2, TAT-linked declustering peptide 2]
- murine neurological score (MNS) over 42 days post-MCAo: significant preservation of favorable neurological score
